{"source": "patent US20060234919A1", "about": "“Use” (priority 2001, published 2006)", "assay_type_in_all_cases": "in vivo, rat", "key": {"[1]": {"system": "hydrochloric acid-induced cystitis", "assay": "urinary frequency in rats with hydrochloric acid-induced cystitis", "excerpt": "Twenty Sprague-Dawley rats (body weight 220-250 g) were randomly divided into four equal groups: group 1, normal controls; group 2, a sham treatment (HCl-induced IC, with subsequent saline instillation); group 3, a sham treatment (HCl-induced IC, with subsequent acetic acid instillation); and group 4, stimulated (HCl-induced IC with oxytocin and acetic acid instillation). The IC animal model developed by Rivas et al. was used (Rivas D A, Chancellor M B, Shupp-Byme D, Shenot P J, McHugh K, McCue P. A molecular marker for the development of interstitial cystitis in a rat model: isoactin gene expression. J. Urol. 1997; 157: 1937-1940); IC was induced in groups 2-4 under general anaesthesia (using a combined subcutaneous injection with acepromazine 0.05 mg/kg, ketamine 50 mg/kg and xylazine 5 mg/kg). A sterile polyethylene catheter (outside diameter 1.27 mm; Becton Dickinson Company, Sparks, Md., USA) was inserted into the bladder through the urethra and all urine aspirated. […]\nThe micturition pattern was measured both before and 3 weeks after intravesical HCl instillation, using a Grass 79 Polygraph (Grass Instruments Co., Quincy, Mass., USA). Rats were placed into a metabolic cage and micturition recorded automatically for […] (17.00-09.00 hours); all rats were assessed at the same time of the day to minimise the effect of the circadian cycle on micturition frequency and volume. […]"}, "[2]": {"system": "caerulein-induced pancreatitis", "assay": "caerulein-induced pancreatitis, pancreatic edema", "details": "subcutaneous pre-treatment 1 mg/ml; caerulein alone 8.11±0.96, control 3.12±0.52", "protocol": "(§1) Caerulein-induced pancreatitis: Female Sprague-Dawley rats (200-250 g) were anaesthetized with pentobarbitone sodium and phenobarbitone sodium (each 40 mg/kg, i.p.). The cholecystokinin analogue caerulein (8 nmol/kg in 2 h) was infused via one jugular vein for exocrine hyperstimulation and induction of acute edematous pancreatitis (Lampel M, Kern H F. Acute interstitial pancreatitis in the rat in-duced by excessive doses of a pancreatic secretagogue. Virchows Arch (Pathol Anat) 1997; 373: 97-117), while control animals were infused with a corresponding volume (4 ml/kg/h) of phosphate-buffered saline. Pre-treatment with the kininase II inhibitor captopril ([…], i. p.) was given 30 min prior to the infusion of caerulein. At the end of the experiment, the animals were sacrificed with an overdose of pentobarbital sodium. The pancreatic tissue was dried for 16 h in a vacuum centrifuge and the edema was quantified as fluid wt. per dry wt. of the tissue. For the determination of lipase activity in serum, the blood was collected following decapitation in separate groups of rats. The pancreas of these animals was excised an placed immediately into 2 ml of a 154 mmol/l solution of NaCl. After centrifugation at 2×10^5 m/s^2 for 25 min the supernatant was stored at −80° C. All samples were assayed for lipase activity (lipase test Boehringer Mannheim, Germany)."}, "lipase": {"system": "lipase", "assay": "caerulein-induced pancreatitis, lipase activity in pancreatic tissue", "details": "1 mg/ml s.c.; caerulein alone 4.87±0.72, control 0.24±0.26", "protocol": "as §1"}, "TNF-alpha": {"system": "TNF-alpha", "assay": "TNF-alpha in BALF in SDX-induced eosinophilic airway inflammation", "details": "1 mg/ml s.c.", "protocol": "12 male Wistar rats aged 11-12 weeks, with an average weight of 323 g, were used in the study. The animals (n=3 in each group) were evaluated at 3 h and 24 h after induced inflammation. These were compared with control animals (n=3 in each group) examined at the same time points. An eosinophilic airway inflammation was induced by intratracheal instillation of SDX particles (G-200 Superfine, Pharmacia & Upjohn, Uppsala, Sweden) dissolved in phosphate-buffered saline (PBS) as previously described (Andersson S E, Zackrisson C, Hemsen A, Lundberg J M. Regulation of lung endothelin content by the glucocorticosteroid budesonide. Biochem Biophys Res Commun 1992, 188:1116-1121) and compared with that in control animals receiving a similar volume of PBS intratracheally. BAL was performed by instillation of 3+2+2 ml of PBS in the right stem bronchus distal to the upper lobe, and the procedure was repeated in the main bronchus on the left side. Immediately after the BAL procedure, the lungs were removed and frozen in liquid nitrogen for tissue analyses 3 h and 24 h after SDX instillation (n=3 animals at each time point) and 3 h and 24 after intratracheal instillation of saline into control animals (n=3). Oxytocin 1 mg/ml was given s.c.\nTNF-alpha was measured with a rat-specific sandwich enzyme-linked immunosorbent assay (ELISA; Factor-Test-X, Genzyme, Cambridge, Mass.). […]"}}, "data": [{"substance": "Oxytocin", "values": [{"measurement": "micturition frequency", "setting": "[1]; group 4 (HCl-induced IC with oxytocin 1 mg/ml instillation) vs group 2+3, after 3 weeks, P=0.05", "value": "significantly less"}, {"measurement": "urine volume per micturition", "setting": "[1]; group 4 (oxytocin instillation) vs group 2+3", "value": "not significantly higher"}, {"measurement": "water content of the pancreatic tissue (edema formation)", "setting": "[2]", "value": "5.25±0.68", "unit": "g/g d. wt."}, {"measurement": "active lipase in the pancreatic tissue", "setting": "lipase", "value": "1.34±0.29", "unit": "U/mg"}, {"measurement": "TNF-alpha concentration in BALF", "setting": "TNF-alpha; 3 h after SDX provocation", "value": "effectively inhibited the increase"}, {"measurement": "TNF-alpha level relative to animals not receiving oxytocin", "setting": "TNF-alpha; 24 h after SDX provocation", "value": 32, "unit": "%"}]}]}
